This note sets out measurements from ChEMBL document CHEMBL3621178, “Antidiabetic effect of novel benzenesulfonylureas as PPAR-γ agonists and their anticancer effect” (Bioorg Med Chem Lett, 2015).

Each structure is given as a SMILES string. The source made the active and inactive calls. The rule behind the calls is not given here.

One series has as its system 3T3-L1. Put plainly: Increase in PPARgamma mRNA expression in mouse 3T3L1 cells at 10 uM incubated for 24 hrs by RT-PCR method. The class given is functional.
Series [1] deals with T1, Peroxisome proliferator-activated receptor gamma (Homo sapiens) (UniProt P37231).
T1 sequence (whole entry): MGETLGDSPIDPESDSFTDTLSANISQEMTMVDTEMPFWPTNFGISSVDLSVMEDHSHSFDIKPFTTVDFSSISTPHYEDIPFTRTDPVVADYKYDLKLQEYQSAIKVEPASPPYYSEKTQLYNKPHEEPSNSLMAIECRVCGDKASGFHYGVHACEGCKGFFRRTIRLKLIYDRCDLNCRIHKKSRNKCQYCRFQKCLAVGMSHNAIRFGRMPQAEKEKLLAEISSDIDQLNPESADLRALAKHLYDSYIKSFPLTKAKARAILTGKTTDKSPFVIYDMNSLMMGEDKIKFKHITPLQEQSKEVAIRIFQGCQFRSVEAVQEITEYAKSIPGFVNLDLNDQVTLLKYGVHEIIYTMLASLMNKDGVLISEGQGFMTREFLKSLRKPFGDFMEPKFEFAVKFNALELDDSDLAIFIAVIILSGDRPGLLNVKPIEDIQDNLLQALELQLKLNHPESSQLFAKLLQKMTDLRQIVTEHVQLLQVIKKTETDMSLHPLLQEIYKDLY
Put plainly: Agonist activity at PPARgamma (unknown origin) expressed in HEK293 cells assessed as receptor transactivation at 10 uM incubated for 24 hrs by luciferase reporter gene assay. Type of series: cell-based. On the technique in general: In a reporter assay the amount or activity of a reporter protein is the signal.

Series [2] relates to Rattus norvegicus. Briefly: Toxicity in STZ-induced diabetic Wistar rat model assessed as increase in body weight at 30 mg/kg, po repeated for 15 days […]. The class given is organism-based. The following applies: in vivo, 360 h.
For series [3], the system named is Rattus norvegicus. Put plainly: Antidiabetic activity in Wistar rat assessed as reduction in blood glucose level at 30 mg/kg, po dosed 30 mins before glucose challenge and measured 30 and 60 mins post glucose challenge by OGTT method. Type of series: functional, organism-based.
Series [4] relates to Rattus norvegicus. Briefly: Antidiabetic activity in STZ-induced diabetic Wistar rat model assessed as reduction in blood glucose level at 30 mg/kg, po repeated for 15 days by GOD-POD method. The class given is functional, organism-based.
Series [5] relates to Rattus norvegicus. Put plainly: Antidiabetic activity in Wistar rat assessed as reduction in blood glucose level at 36 mg/kg, po dosed 30 mins before glucose challenge and measured 30 and 60 mins post glucose challenge by OGTT method. Type of series: functional, organism-based.
For series [6], the system named is Rattus norvegicus. Put plainly: Antidiabetic activity in STZ-induced diabetic Wistar rat model assessed as reduction in blood glucose level at 36 mg/kg, po repeated for 15 days by GOD-POD method. Type of series: functional, organism-based.
The subject of series [7] is Rattus norvegicus. Briefly: Toxicity in STZ-induced diabetic Wistar rat model assessed as increase in body weight at 36 mg/kg, po repeated for 15 days […]. The class given is organism-based. The settings on record: in vivo, 360 h.

On to `Cc1ccccc1NC(=O)NS(=O)(=O)c1ccc(N2N=C(c3cc4ccccc4oc3=O)CC2c2ccc(N(C)C)cc2)cc1` (stereo not given), for which the “fold change (FC)” value in the series with 3T3-L1 is 1.13. In addition, the outcome (in series [1]; in the series with Rattus norvegicus [3]; in the series on Rattus norvegicus [4]) was Active. Further, the Activity result in the series with Rattus norvegicus [2] is recorded as “Non-toxic”.

With `COc1ccc(NC(=S)NS(=O)(=O)c2ccc(N3N=C(c4ccco4)CC3c3ccc(N(C)C)cc3)cc2)cc1` (stereo not given), the result with Rattus norvegicus [3] was Active.

For `COc1ccc(C2CC(c3ccco3)=NN2c2ccc(S(=O)(=O)NC(=O)Nc3ccccc3C)cc2)cc1` (stereo not given), the result in the series with Rattus norvegicus [3] was Active.

On to `COc1ccc(NC(=O)NS(=O)(=O)c2ccc(N3N=C(c4ccco4)CC3c3ccc(N(C)C)cc3)cc2)cc1` (stereo not given), for which the result in the series on Rattus norvegicus [3] was Active.

As to `Cc1ccccc1NC(=O)NS(=O)(=O)c1ccc(N2N=C(c3ccco3)CC2c2ccc(N(C)C)cc2)cc1` (stereo not given), the result (in series [1]; with Rattus norvegicus [3]; with Rattus norvegicus [4]) was Active. The Activity entry in the series with Rattus norvegicus [2] is given as “Non-toxic”.

In the case of `COc1ccc(Cl)cc1C(=O)NCCc1ccc(S(=O)(=O)NC(=O)NC2CCCCC2)cc1` [GLYBURIDE], the “fold change (FC)” value in the series with 3T3-L1 is on record as 1.01. Besides, the result (in series [1]; with Rattus norvegicus [3]; in the series with Rattus norvegicus [4]) was Active. Besides, in the series with Rattus norvegicus [2], the Activity result was “Toxic”.

Take `CN(C)c1ccc(C2CC(c3ccco3)=NN2c2ccc(S(=O)(=O)NC(=O)NCc3ccccc3)cc2)cc1` (stereo not given): the outcome (in series [1]; in the series with Rattus norvegicus [3]; with Rattus norvegicus [4]) was Active. Further, the Activity result in the series with Rattus norvegicus [2] is given as “Non-toxic”.

In the case of `COc1ccc(C2CC(c3cc4ccccc4oc3=O)=NN2c2ccc(S(=O)(=O)NC(=S)NCc3ccccc3)cc2)cc1` (stereo not given), the result (in series [1]; with Rattus norvegicus [3]; in the series with Rattus norvegicus [4]) was Active. Further, the Activity entry in the series on Rattus norvegicus [2] is “Non-toxic”.

With `CN(CCOc1ccc(CC2SC(=O)NC2=O)cc1)c1ccccn1` (stereo not given) [ROSIGLITAZONE], the result (with Rattus norvegicus [5]; with Rattus norvegicus [6]; in series [1]) was Active. In the series on 3T3-L1, the “fold change (FC)” value is 1.52. The Activity entry in the series with Rattus norvegicus [7] is on record as “Toxic”.
